According to patent US7858635B2 (priority 2005, dated 2010):
Where two headings read alike, the source gives them in different places.

Key:
M1 muscarinic receptor = molecular target: T1, M1 muscarinic receptor (Homo sapiens, UniProt P11229); experiment: Functional mobilization of intracellular calcium (FLIPR, Fluo-3), M1-CHO cells; format: cell-based; conditions: for Emax: read-out: M1 Efficacy
T1 construct: expressed in transfected cells; host or cells: CHO cells (M1-CHO, under zeocin and G418 selection)
T1 sequence (P11229 1-460): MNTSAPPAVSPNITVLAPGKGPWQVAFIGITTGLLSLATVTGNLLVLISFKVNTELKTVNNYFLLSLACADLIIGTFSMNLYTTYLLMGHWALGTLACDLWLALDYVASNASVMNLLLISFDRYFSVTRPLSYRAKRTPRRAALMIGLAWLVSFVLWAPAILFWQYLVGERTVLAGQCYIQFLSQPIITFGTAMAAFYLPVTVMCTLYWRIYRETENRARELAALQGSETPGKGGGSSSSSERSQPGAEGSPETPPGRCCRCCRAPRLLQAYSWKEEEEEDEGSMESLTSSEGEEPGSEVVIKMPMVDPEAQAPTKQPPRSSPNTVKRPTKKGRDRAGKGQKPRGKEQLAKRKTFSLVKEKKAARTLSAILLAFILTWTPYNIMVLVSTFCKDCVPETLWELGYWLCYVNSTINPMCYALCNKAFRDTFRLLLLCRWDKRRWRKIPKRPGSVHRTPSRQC
Method in brief: (§1)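 Intracellular calcium was tracked by fluorescence (488/540 nm) over 60 sec after compound addition to dye-loaded CHO cells expressing the receptor. Inhibitory activity used a 15 min pre-incubation before carbachol at the subtype EC80.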

M4 muscarinic receptor = molecular target: T2, M4 muscarinic receptor (Homo sapiens, UniProt P08173); experiment: Functional mobilization of intracellular calcium (FLIPR, Fluo-3), M4-CHO cells; format: cell-based; conditions: for Emax: read-out: M4 Efficacy
T2 construct: expressed in transfected cells; host or cells: CHO cells (M4-CHO, under puromycin, zeocin and blasticidin selection)
T2 sequence (P08173 1-479): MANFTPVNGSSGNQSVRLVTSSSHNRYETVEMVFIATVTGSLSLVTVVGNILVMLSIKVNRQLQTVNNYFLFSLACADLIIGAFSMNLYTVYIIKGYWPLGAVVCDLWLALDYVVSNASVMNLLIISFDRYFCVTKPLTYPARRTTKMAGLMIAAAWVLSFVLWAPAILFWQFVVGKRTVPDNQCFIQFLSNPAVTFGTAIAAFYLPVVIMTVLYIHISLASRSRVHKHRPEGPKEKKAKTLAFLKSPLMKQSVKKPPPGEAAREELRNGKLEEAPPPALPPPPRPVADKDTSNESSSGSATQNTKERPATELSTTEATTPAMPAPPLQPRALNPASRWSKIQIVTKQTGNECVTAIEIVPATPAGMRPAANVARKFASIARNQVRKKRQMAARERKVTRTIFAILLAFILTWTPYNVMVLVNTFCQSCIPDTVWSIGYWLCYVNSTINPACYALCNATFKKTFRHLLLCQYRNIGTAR
Method in brief: as §1

[1] = compound nos. 1-454, 100% efficacy is the maximum response obtained with the Carbachol control
[2] = compound nos. 1-454, M1-CHO cells, calcium mobilization
[3] = compound nos. 1-454, M4-CHO cells, calcium mobilization
[4] = compound nos. 455-509, 100% efficacy is the maximum response obtained with the Carbachol control

Compound | Emax (M1 muscarinic receptor; [1]) | Emax (M4 muscarinic receptor; [1]) | M1 Activity (M1 muscarinic receptor; [2]) | M4 Activity (M4 muscarinic receptor; [3]) | other results
CCNC(=O)N1CC2(CCN(C3CC4CCC3C4)CC2)c2cc(C)ccc21 (centres unmarked) [compound 400] | < 65% | < 55% |  |  | M1 Activity (M1 muscarinic receptor; compound nos. 1-454): + (activity was measured to be greater than or equal to 3.0 μM); M4 Activity (M4 muscarinic receptor; compound nos. 1-454): + (activity was measured to be greater than or equal to 4.0 μM)
Cc1ccc2c(c1)C1(CCN(C3CC4CCC3C4)CC1)CN2C(=O)C1CC1 (centres unmarked) [compound 51] | 65 to 85% | 55 to 70% | +++ (activity was measured to be less than or equal to 0.7 μM) | ++ (activity was measured to be between 0.1 μM and 4.0 μM) | 
Cc1ccc2c(c1)C1(CCN(C3CC4CCC3C4)CC1)CN2C(=O)c1cc(C)n(C)n1 (centres unmarked) [compound 211] | 65 to 85% | < 55% | + (activity was measured to be greater than or equal to 3.0 μM) | + (activity was measured to be greater than or equal to 4.0 μM) | 
CC(=O)N1CC2(CCN(C3CCN(c4nc(C)ns4)CC3)CC2)c2ccccc21 [compound 482] |  |  |  |  | Emax (M1 muscarinic receptor; [4]): > 100%; M1 Activity (M1 muscarinic receptor; compounds 455-509): +++ (activity was measured to be less than or equal to 2.0 μM); Emax (M4 muscarinic receptor; [4]): 25 to 100%; M4 Activity (M4 muscarinic receptor; compounds 455-509): ++ (activity was measured to be between 2.0 μM and 5.0 μM)
CCc1nsc(N2CCC(N3CCC4(CCN(C(=O)N(C)C)c5ccccc54)CC3)CC2)n1 [compound 455] |  |  |  |  | Emax (M1 muscarinic receptor; [4]): > 100%; M1 Activity (M1 muscarinic receptor; compounds 455-509): +++ (activity was measured to be less than or equal to 2.0 μM); Emax (M4 muscarinic receptor; [4]): 25 to 100%; M4 Activity (M4 muscarinic receptor; compounds 455-509): ++ (activity was measured to be between 2.0 μM and 5.0 μM)
O=C(OC1CCC1)N1CC2(CCN(C3CC4CCC(C3)N4C(=O)O[C@H]3CCOC3)CC2)c2cc(F)ccc21 (some centres unmarked) [compound 125] | 65 to 85% | < 55% | +++ (activity was measured to be less than or equal to 0.7 μM) | ++ (activity was measured to be between 0.1 μM and 4.0 μM) | 
CC(=O)NC1CC2(CCN(CC3CC4C=CC3C4)CC2)c2ccccc21 (centres unmarked) [compound 180] | 65 to 85% | 55 to 70% | +++ (activity was measured to be less than or equal to 0.7 μM) | +++ (activity was measured to be less than or equal to 0.1 μM) | 
CC(C)OC(=O)N1C2CCC1CC(N1CCC3(CC1)C(=O)Nc1ccccc13)C2 (centres unmarked) [compound 139] | > 85% | > 70% | +++ (activity was measured to be less than or equal to 0.7 μM) | +++ (activity was measured to be less than or equal to 0.1 μM) | 
Cc1ccc2c(c1)C1(CCN([C@@H]3C[C@@H]4CC[C@@H]3C4)CC1)CN2 [compound 264] | < 65% | < 55% | + (activity was measured to be greater than or equal to 3.0 μM) | + (activity was measured to be greater than or equal to 4.0 μM) | 
CC(=O)N1CC2(CCN(CC3CCCC3)CC2)c2cc(F)ccc21 [compound 187] | 65 to 85% | 55 to 70% | ++ (activity was measured to be between 0.7 μM and 3.0 μM) | + (activity was measured to be greater than or equal to 4.0 μM) | 
CN(C)C(=O)N1CC2(CCN(C3CCN(c4cnc(-c5ccncc5)cn4)CC3)CC2)c2ccccc21 [compound 467] |  |  |  |  | Emax (M1 muscarinic receptor; [4]): > 100%; M1 Activity (M1 muscarinic receptor; compounds 455-509): +++ (activity was measured to be less than or equal to 2.0 μM); Emax (M4 muscarinic receptor; [4]): 25 to 100%; M4 Activity (M4 muscarinic receptor; compounds 455-509): + (activity was measured to be greater than or equal to 5.0 μM)
CCOC(=O)N1CCC(N2CCC3(CC2)CN(C(C)=O)c2ccc(-c4ccc(C(F)(F)F)cc4)cc23)CC1 [compound 295] | 65 to 85% | 55 to 70% | +++ (activity was measured to be less than or equal to 0.7 μM) | +++ (activity was measured to be less than or equal to 0.1 μM) | 
CC(=O)N1CC2(CCN(C3CCN(C(=O)OC(C)C)CC3)CC2)c2cc(F)ccc21 [compound 269] | 65 to 85% | > 70% | +++ (activity was measured to be less than or equal to 0.7 μM) | +++ (activity was measured to be less than or equal to 0.1 μM) | 
CCOC(=O)N1CCC(N2CCC3(CC2)CN(C(=O)N2CCCC2)c2ccc(F)cc23)CC1 [compound 22] | 65 to 85% | < 55% | +++ (activity was measured to be less than or equal to 0.7 μM) | + (activity was measured to be greater than or equal to 4.0 μM) | 
CC(=O)N1CC2(CCN(CC3CCN(C(=O)OC(C)C)CC3)CC2)c2cc(F)ccc21 [compound 202] | 65 to 85% | < 55% | ++ (activity was measured to be between 0.7 μM and 3.0 μM) | + (activity was measured to be greater than or equal to 4.0 μM) | 
CC(=O)N1CCC2(CCN(C3CCN(c4nc(C)ns4)CC3)CC2)c2ccccc21 [compound 492] |  |  |  |  | Emax (M1 muscarinic receptor; [4]): > 100%; M1 Activity (M1 muscarinic receptor; compounds 455-509): +++ (activity was measured to be less than or equal to 2.0 μM); Emax (M4 muscarinic receptor; [4]): 25 to 100%; M4 Activity (M4 muscarinic receptor; compounds 455-509): ++ (activity was measured to be between 2.0 μM and 5.0 μM)
Cc1nsc(N2C3CCC2CC(N2CCC4(CCN(C(=O)N(C)C)c5ccccc54)CC2)C3)n1 (centres unmarked) [compound 501] |  |  |  |  | Emax (M1 muscarinic receptor; [4]): > 100%; M1 Activity (M1 muscarinic receptor; compounds 455-509): +++ (activity was measured to be less than or equal to 2.0 μM); Emax (M4 muscarinic receptor; [4]): 25 to 100%; M4 Activity (M4 muscarinic receptor; compounds 455-509): ++ (activity was measured to be between 2.0 μM and 5.0 μM)
CS(=O)(=O)N1CC2(CCN(C3CC4CCC(C3)N4C(=O)O[C@@H]3CCOC3)CC2)c2cc(F)ccc21 (some centres unmarked) [compound 16] | 65 to 85% | 55 to 70% | +++ (activity was measured to be less than or equal to 0.7 μM) | +++ (activity was measured to be less than or equal to 0.1 μM) | 
CC(=O)NC1CC2(CCN(C3CC4CCC(C4)C3)CC2)c2ccccc21 (centres unmarked) [compound 8] | < 65% | 55 to 70% | ++ (activity was measured to be between 0.7 μM and 3.0 μM) | ++ (activity was measured to be between 0.1 μM and 4.0 μM) | 
Fc1ccc2c(c1)C1(CCN(CC3CC4C=CC3C4)CC1)CN2 (centres unmarked) [compound 183] | 65 to 85% | 55 to 70% | ++ (activity was measured to be between 0.7 μM and 3.0 μM) | + (activity was measured to be greater than or equal to 4.0 μM) | 
CCOC(=O)N1C2CCC1CC(N1CCC3(CC1)CN(C(=O)Oc1ccc(F)cc1)c1ccc(F)cc13)C2 (centres unmarked) [compound 298] |  |  | + (activity was measured to be greater than or equal to 3.0 μM) | + (activity was measured to be greater than or equal to 4.0 μM) | Emax (M1 muscarinic receptor): < 65%; Emax (M4 muscarinic receptor): 55 to 70%
CCOC(=O)N1C2CCC1CC(N1CCC3(CC1)C(=O)N(C)c1ccccc13)C2 (centres unmarked) [compound 149] | > 85% | > 70% | +++ (activity was measured to be less than or equal to 0.7 μM) | + (activity was measured to be greater than or equal to 4.0 μM) | 
CCOC(=O)N1CCC(N2CCC3(CC2)C[C@H](NC(C)=O)c2ccccc23)CC1 [compound 430] | < 65% | < 55% |  |  | M1 Activity (M1 muscarinic receptor; compound nos. 1-454): ++ (activity was measured to be between 0.7 μM and 3.0 μM); M4 Activity (M4 muscarinic receptor; compound nos. 1-454): + (activity was measured to be greater than or equal to 4.0 μM)
